Experimental data published in patent US12091426B2, “Bifunctional degraders of hematopoietic progenitor kinase and therapeutic uses thereof” (Nurix Therapeutics, Inc., priority 2021, dated 2024).

Molecular target: T1, HPK1 (Homo sapiens, UniProt Q92918)
T1 construct: A HiBiT tag was introduced by CRISPR on the N terminus of HPK1 in Jurkat cells; host or cells: Jurkat cells (ATCC TIB-152), monoclonal line with CRISPR knock-in of HiBiT at the endogenous HPK1 locus
Experiment: HPK1 Cellular HiBit Degradation Assay
Format: cell-based
Details: HiBiT HPK1 Jurkat cells, 24 hrs; for DC50: concentration at which 50% of HPK1 was remaining, read-out: DC50 Category; for Dmax: Jurkat, maximum degradation vs DMSO vehicle control, read-out: Dmax Category
How it was run: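 Jurkat cells with CRISPR N-terminal HiBiT-tagged endogenous HPK1 treated 24 h at 37 °C with 11-point, 3.16-fold dilutions (10 uM to 0.1 nM final). HiBiT lytic luminescence gives % HPK1 remaining versus DMSO, with parental cells as background. Four-parameter fit yields DC50; Dmax = 100 minus lowest % remaining.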

T1 sequence (Q92918 whole entry): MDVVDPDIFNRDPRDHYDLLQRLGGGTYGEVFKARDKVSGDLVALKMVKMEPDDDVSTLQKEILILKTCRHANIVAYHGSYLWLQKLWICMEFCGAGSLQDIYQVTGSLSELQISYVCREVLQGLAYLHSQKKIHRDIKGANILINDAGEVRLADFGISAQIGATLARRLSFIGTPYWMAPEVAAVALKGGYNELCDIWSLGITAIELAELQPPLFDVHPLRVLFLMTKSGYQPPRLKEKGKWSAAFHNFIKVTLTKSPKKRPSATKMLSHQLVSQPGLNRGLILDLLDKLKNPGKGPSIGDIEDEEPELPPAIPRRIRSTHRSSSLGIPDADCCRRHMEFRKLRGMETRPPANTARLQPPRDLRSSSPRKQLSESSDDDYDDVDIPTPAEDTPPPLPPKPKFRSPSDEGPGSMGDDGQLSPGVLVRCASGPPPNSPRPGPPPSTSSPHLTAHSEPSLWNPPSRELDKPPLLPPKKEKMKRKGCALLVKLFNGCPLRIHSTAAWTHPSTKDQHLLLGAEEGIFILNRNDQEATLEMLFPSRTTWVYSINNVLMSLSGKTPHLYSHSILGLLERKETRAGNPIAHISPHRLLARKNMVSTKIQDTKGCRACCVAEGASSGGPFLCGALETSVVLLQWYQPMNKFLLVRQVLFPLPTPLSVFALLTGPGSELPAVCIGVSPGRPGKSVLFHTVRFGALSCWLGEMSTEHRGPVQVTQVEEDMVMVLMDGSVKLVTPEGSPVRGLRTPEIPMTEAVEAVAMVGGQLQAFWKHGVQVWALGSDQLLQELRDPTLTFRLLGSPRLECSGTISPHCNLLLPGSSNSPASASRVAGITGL

DC50 [nM]	Dmax [%]	SMILES
< 100	50 to 70	CC(C)n1cnc2cc(-c3ccc4c(c3)N([C@H]3C[C@@H](N5CCCCC5)C3)C(=O)C43CCN(C(=O)C4(C)CCN(C(=O)CN5CCN(c6ccc(C7CCC(=O)NC7=O)cn6)CC5)CC4)CC3)nc(NC3CC3)c21 (mixture of isomers) [Example 123, (3RS)-3-[6-(4-{2-[4-({6-[4-(cyclopropylamino)-3-(propan-2-yl)-3H-imidazo[4,5-c]pyridin-6-yl]-2-oxo-1-[(1S,3S)-3-(piperidin-1-yl)cyclobutyl]-1,2-dihydrospiro[indole-3,4′-piperidin]-1′-yl}carbonyl)-4-methylpiperidin-1-yl]-2-oxoethyl}piperazin-1-yl)pyridin-3-yl]piperidine-2,6-dione]
100 to 500	70 to 85	CC(C)n1cnc2cc(-c3ccc4c(c3)N([C@H]3C[C@@H](N5CCCCC5)C3)C(=O)C43CCN(C(=O)[C@@H]4CCN(C(=O)[C@H]5CC[C@H](Nc6cc(C7CCC(=O)NC7=O)ccn6)CC5)C4)CC3)nc(Nc3ccccc3F)c21 (mixture of isomers) [Example 1, (3RS)-3-(2-{[(1R,4R)-4-[(3R)-3-[(6-{4-[(2-fluorophenyl)amino]-3-(propan-2-yl)-3H-imidazo[4,5-c]pyridin-6-yl}-2-oxo-1-[(1S,3S)-3-(piperidin-1-yl)cyclobutyl]-1,2-dihydrospiro[indole-3,4′-piperidin]-1′-yl)carbonyl]pyrrolidine-1-carbonyl]cyclohexyl]amino}pyridin-4-yl)piperidine-2,6-dione]
100 to 500	50 to 70	CC(C)n1cnc2cc(-c3ccc4c(c3)N([C@H]3C[C@@H](N5CCCCC5)C3)C(=O)C43CCN(C(=O)C4CCN(C(=O)[C@H]5CC[C@H](Nc6ccc(C7CCC(=O)NC7=O)cc6)CC5)CC4)CC3)nc(NC3CC3)c21 (mixture of isomers) [Example 53, (3RS)-3-(4-{[(1R,4R)-4-[4-({6-[4-(cyclopropylamino)-3-(propan-2-yl)-3H-imidazo[4,5-c]pyridin-6-yl]-2-oxo-1-[(1S,3S)-3-(piperidin-1-yl)cyclobutyl]-1,2-dihydrospiro[indole-3,4′-piperidin]-1′-yl}carbonyl)piperidine-1-carbonyl]cyclohexyl]amino}phenyl)piperidine-2,6-dione]
100 to 500	50 to 70	CC(C)n1cnc2cc(-c3ccc4c(c3)N([C@H]3C[C@@H](N5CCCCC5)C3)C(=O)C43CCN(C(=O)C4CCN(C(=O)C5CCN(c6ccc(C7CCC(=O)NC7=O)nc6)CC5)CC4)CC3)nc(NC3CC3)c21 (stereo partly drawn) [Example 84, 3-(5-{4-[4-({6-[4-(cyclopropylamino)-3-(propan-2-yl)-3H-imidazo[4,5-c]pyridin-6-yl]-2-Oxo-1-[(1S,3S)-3-(piperidin-1-yl)cyclobutyl]-1,2-dihydrospiro[indole-3,4′-piperidin]-1′-yl}carbonyl)piperidine-1-carbonyl]piperidin-1-yl}pyridin-2-yl)piperidine-2,6-dione]
< 100	70 to 85	CC(C)n1cnc2cc(-c3ccc4c(c3)N([C@H]3C[C@@H](N5CCCCC5)C3)C(=O)C43CCN(C(=O)C4CCN(C(=O)[C@H]5CC[C@H](C(=O)N6CCc7cc(C8CCC(=O)NC8=O)ccc7C6)CC5)CC4)CC3)nc(Nc3ccccc3F)c21 (stereo partly drawn) [Example 48, 3-(2-((1R,4R)-4-(4-(6-(4-((2-fluorophenyl)amino)-3-isopropyl-3H-imidazo[4,5-c]pyridin-6-yl)-2-oxo-1-((1S,3S)-3-(piperidin-1-yl)cyclobutyl)spiro[indoline-3,4′-piperidine]-1′-carbonyl)piperidine-1-carbonyl)cyclohexane-1-carbonyl)-1,2,3,4-tetrahydroisoquinolin-6-yl)piperidine-2,6-dione]
500 to 1000	50 to 70	CC(C)n1cnc2cc(-c3ccc4c(c3)N([C@H]3C[C@@H](N5CCCCC5)C3)C(=O)C43CCN(C(=O)C4CC45CCN(C(=O)C4CCN(c6ccc(C7CCC(=O)NC7=O)cn6)CC4)C5)CC3)nc(NC3CC3)c21 (mixture of isomers) [Example 303, (3RS)-3-(6-{4-[1-({6-[4-(cyclopropylamino)-3-(propan-2-yl)-3H-imidazo[4,5-c]pyridin-6-yl]-2-oxo-1-[(1S,3S)-3-(piperidin-1-yl)cyclobutyl]-1,2-dihydrospiro[indole-3,4′-piperidin]-1′-yl}carbonyl)-5-azaspiro[2.4]heptane-5-carbonyl]piperidin-1-yl}pyridin-3-yl)piperidine-2,6-dione]
< 100	70 to 85	CC(C)n1cnc2cc(-c3ccc4c(c3)N([C@H]3C[C@@H](N5CCCCC5)C3)C(=O)C43CCN(C(=O)C4(C)CCN(C(=O)C5C6CCC5CN(c5ccc(N7CCC(=O)NC7=O)cn5)C6)CC4)CC3)nc(NC3CC3)c21 (stereo partly shown) [Example 155]
100 to 500	50 to 70	CC(C)n1cnc2cc(-c3ccc4c(c3)N([C@H]3C[C@@H](N5CCC[C@H](F)C5)C3)C(=O)C43CCN(C(=O)C4(C)CCN(C(=O)CC5CCN(c6ccc(C7CCC(=O)NC7=O)cn6)CC5)CC4)CC3)nc(NC3CC3)c21 (mixture of isomers) [Example 206, (3RS)-3-[6-(4-{2-[4-({6-[4-(cyclopropylamino)-3-(propan-2-yl)-3H-imidazo[4,5-c]pyridin-6-yl]-2-oxo-1-[(1S,3S)-3-[(3S)-3-fluoropiperidin-1-yl]cyclobutyl]-1,2-dihydrospiro[indole-3,4′-piperidin]-1′-yl}carbonyl)-4-methylpiperidin-1-yl]-2-oxoethyl}piperidin-1-yl)pyridin-3-yl]piperidine-2,6-dione]
< 100	50 to 70	COC1CN(C(=O)C2CCN(c3ccc(C4CCC(=O)NC4=O)cc3)CC2)CCC1C(=O)N1CCC2(CC1)C(=O)N([C@H]1C[C@@H](N3CCCCC3)C1)c1cc(-c3cc4ncn(C(C)C)c4c(NC4CC4)n3)ccc12 (mixture of isomers) [Example 257, (3RS)-3-(4-{4-[4-({6-[4-(cyclopropylamino)-3-(propan-2-yl)-3H-imidazo[4,5-c]pyridin-6-yl]-2-oxo-1-[(1S,3S)-3-(piperidin-1-yl)cyclobutyl]-1,2-dihydrospiro[indole-3,4′-piperidin]-1′-yl}carbonyl)-3-methoxypiperidine-1-carbonyl]piperidin-1-yl}phenyl)piperidine-2,6-dione]
< 100	70 to 85	CC(C)n1cnc2cc(-c3ccc4c(c3)N([C@H]3C[C@@H](N5CCCCC5)C3)C(=O)C43CCN(C(=O)C4(C)CCN(C(=O)C5CCN(c6ccc(C7CCC(=O)NC7=O)cc6F)CC5)CC4)CC3)nc(NC3CC3)c21 (mixture of isomers) [Example 152, (3RS)-3-(4-{4-[4-({6-[4-(cyclopropylamino)-3-isopropylimidazo[4,5-c]pyridin-6-yl]-2-oxo-1-[(1S,3S)-3-(piperidin-1-yl)cyclobutyl]spiro[indole-3,4′-piperidin]-1′-yl}carbonyl)-4-methylpiperidine-1-carbonyl]piperidin-1-yl}-3-Fluorophenyl)piperidine-2,6-dione]
100 to 500	> 85	Cc1cc(C2CCC(=O)NC2=O)ccc1O[C@H]1CC[C@H](C(=O)N2CCC(C)(C(=O)N3CCC4(CC3)C(=O)N([C@H]3C[C@@H](N5CCCCC5)C3)c3cc(-c5cc6ncn(C(C)C)c6c(NC6CC6)n5)ccc34)CC2)CC1 (mixture of isomers) [Example 156, (3RS)-3-(3-methyl-4-{[(1R,4R)-4-[4-({6-[4-(cyclopropylamino)-3-isopropylimidazo[4,5-c]pyridin-6-yl]-2-oxo-1-[(1S,3S)-3-(piperidin-1-yl)cyclobutyl]spiro[indole-3,4′-piperidin]-1′-yl}carbonyl)-4-methylpiperidine-1-carbonyl]cyclohexyl]oxy}phenyl)piperidine-2,6-dione]
< 100	> 85	CC(C)n1cnc2cc(-c3ccc4c(c3)N([C@H]3C[C@@H](N5CCCCC5)C3)C(=O)C43CCN(C(=O)C4(C)CCN(C(=O)[C@H]5CC[C@H](Oc6ccc(C7CCC(=O)NC7=O)cc6)CC5)CC4)CC3)nc(Nc3ccccc3F)c21 (mixture of isomers) [Example 102, (3RS)-3-(4-{[(1R,4R)-4-{4-[(6-{4-[(2-fluorophenyl)amino]-3-isopropylimidazo[4,5-c]pyridin-6-yl}-2-oxo-1-[(1S,3S)-3-(piperidin-1-yl)cyclobutyl]spiro[indole-3,4′-piperidin]-1′-yl)carbonyl]-4-methylpiperidine-1-carbonyl}cyclohexyl]oxy}phenyl)piperidine-2,6-dione]
< 100	70 to 85	CC(C)n1cnc2cc(-c3ccc4c(c3)N([C@H]3C[C@@H](N5CCCCC5)C3)C(=O)C43CCN(C(=O)C4CN(C(=O)C5CCN(c6ccc(C7CCC(=O)NC7=O)cn6)CC5)CCC45CCC5)CC3)nc(NC3CC3)c21 (mixture of isomers) [Example 287, (3RS)-3-(6-{4-[5-({6-[4-(cyclopropylamino)-3-(propan-2-yl)-3H-imidazo[4,5-c]pyridin-6-yl]-2-oxo-1-[(1S,3S)-3-(piperidin-1-yl)cyclobutyl]-1,2-dihydrospiro[indole-3,4′-piperidin]-1′-yl}carbonyl)-7-azaspiro[3.5]nonane-7-carbonyl]piperidin-1-yl}pyridin-3-yl)piperidine-2,6-dione]
< 100	> 85	CC(C)n1cnc2cc(-c3ccc4c(c3)N([C@H]3C[C@@H](N5CCCCC5)C3)C(=O)C43CCN(C(=O)C4CCN(C(=O)C5CCN(c6ccc(C7CCC(=O)NC7=O)cn6)CC5)CC4)CC3)nc(Nc3ccccc3F)c21 (mixture of isomers) [Example 74, (3RS)-3-[6-(4-{4-[(6-{4-[(2-fluorophenyl)amino]-3-(propan-2-yl)-3H-imidazo[4,5-c]pyridin-6-yl}-2-oxo-1-[(1S,3S)-3-(piperidin-1-yl)cyclobutyl]-1,2-dihydrospiro[indole-3,4′-piperidin]-1′-yl)carbonyl]piperidine-1-carbonyl}piperidin-1-yl)pyridin-3-yl]piperidine-2,6-dione]
